Test results from publication PMC9161374 (Science Translational Medicine, 2022).
Values joined by “and” are separate entries in the source; they are usually repeats but may differ in a detail not shown here. Equal entries are not always repeated. Where two headings read alike, the source gives them in different places.

Legend:
[1] = test system: SARS-CoV-2 Delta variant; type: in vivo, K18-hACE2 mice; details: for % Initial weight / nucleocapsid gRNA copies/ μL / Log10 (FFU/g): individual animals; for % Initial weight: Fig.6B; for nucleocapsid gRNA copies/ μL: Fig.6C; for Log10 (FFU/g): Fig.6D
[2] = test system: SARS-CoV-2 (Delta, B.1.617.2); experiment: microbe, parasite or virus in culture; type: cell-based
[3] = test system: SARS-CoV-2 (Omicron, B.1.1.529)
[4] = test system: SARS-CoV-2 Delta variant; type: in vivo, K18-hACE2 mice; details: for lung virus titers in plaque assays: ATV006 250 or 100 mg/kg, EIDD-2801 500 mg/kg

CC(C)C(=O)OC[C@H]1O[C@@](C#N)(c2ccc3c(N)ncnn23)[C@H](O)[C@@H]1O [ATV006]
% Initial weight ([1]; 10mg/kg, 0d): 100%
% Initial weight ([1]; 10mg/kg, 1d): 101.648% and 100.759% and 96.0784% and 96.7539% and 101.529%
% Initial weight ([1]; 10mg/kg, 2d): 101.923% and 99.2405% and 97.0588% and 94.7644% and 103.824%
% Initial weight ([1]; 10mg/kg, 3d): 98.9011% and 98.7342% and 96.5686% and 95.0262% and 104.706%
nucleocapsid gRNA copies/ μL ([1]; 10mg/kg): 146414 copies/ μL and 275440 copies/ μL and 232362 copies/ μL and 312910 copies/ μL and 80285.6 copies/ μL
% Initial weight ([1]; 30mg/kg, 0d): 100%
% Initial weight ([1]; 30mg/kg, 1d): 102.538% and 104.147% and 99.7354% and 98.4143% and 100.606%
% Initial weight ([1]; 30mg/kg, 2d): 101.015% and 104.987% and 97.619% and 97.6982% and 97.3539%
% Initial weight ([1]; 30mg/kg, 3d): 101.777% and 105.249% and 100% and 99.7442% and 101.433%
nucleocapsid gRNA copies/ μL ([1]; 30mg/kg): 13248.7 copies/ μL and 53687.7 copies/ μL and 90173.6 copies/ μL and 4602.2 copies/ μL and 1089.53 copies/ μL
Log10 (FFU/g) ([1]; 30mg/kg): 285 FFU/g and 11142.9 FFU/g and 1428.57 FFU/g
% Initial weight ([1]; 80mg/kg, 0d): 100%
% Initial weight ([1]; 80mg/kg, 1d): 98.0198% and 99.4949% and 101.272% and 98.5163% and 99.5238%
% Initial weight ([1]; 80mg/kg, 2d): 101.98% and 95.9596% and 100% and 98.635% and 104.762%
% Initial weight ([1]; 80mg/kg, 3d): 103.96% and 97.3232% and 99.6438% and 102.077% and 105.357%
nucleocapsid gRNA copies/ μL ([1]; 80mg/kg): 1775.52 copies/ μL and 4114.3 copies/ μL and 2639.93 copies/ μL and 10494.5 copies/ μL and 13845.3 copies/ μL
Log10 (FFU/g) ([1]; 80mg/kg): 285 FFU/g
% Initial weight ([1]; 150mg/kg, 0d): 100%
% Initial weight ([1]; 150mg/kg, 1d): 98.25% and 98.7147% and 97.1922% and 101.765% and 97.8241%
% Initial weight ([1]; 150mg/kg, 2d): 98.35% and 100% and 98.2721% and 105.229% and 95.8333%
% Initial weight ([1]; 150mg/kg, 3d): 97.75% and 97.4293% and 97.1922% and 107.516% and 97.4537%
nucleocapsid gRNA copies/ μL ([1]; 150mg/kg): 3137.57 copies/ μL and 1055.82 copies/ μL and 1750.74 copies/ μL and 2116.43 copies/ μL and 8855.34 copies/ μL
Log10 (FFU/g) ([1]; 150mg/kg): 285 FFU/g
Viral titer in lungs ([1]; mouse, in vivo): reduced below the detection limit
lung histopathology ([1]; mouse, in vivo): alleviated the symptoms in the lungs
viral load in the lungs ([1]; mouse, in vivo): reduced viral load in the lungs
fold potency improvement [2]: > 4 fold
fold potency improvement [3]: > 12 fold
therapeutic index (CC50/EC50) [3]: 1207.55
lung virus titers in plaque assays ([4]; […]): below the limit of detection
Ccl2 transcript, Vehicle/ATV006 fold change + standard error of the mean ([4]; mouse, in vivo): 24.69±25.14
Cxcl10 transcript, Vehicle/ATV006 fold change + standard error of the mean ([4]; mouse, in vivo): 43.19±20.74
Ifnb transcript, Vehicle/ATV006 fold change + standard error of the mean ([4]; mouse, in vivo): 5.85±4.59
Ifng transcript, Vehicle/ATV006 fold change + standard error of the mean ([4]; mouse, in vivo): 25.56±17.77
Il1β transcript, Vehicle/ATV006 fold change + standard error of the mean ([4]; mouse, in vivo): 0.66±0.01
Il6 transcript, Vehicle/ATV006 fold change + standard error of the mean ([4]; mouse, in vivo): 3.14±2.37
lung pathology (histopathology) ([4]; mouse, in vivo): reduced evidence of lung pathology
lung viral RNA compared to the control ([4]; mouse, in vivo): significantly reducing viral RNA
spike (S) protein of SARS-CoV-2 in lungs, immunohistochemistry ([4]; mouse, in vivo): hardly detectable
survival ([4]; prophylactic dosing, orally once daily, […]): prevent the death

CC(C)C(=O)OC[C@H]1O[C@@H](n2ccc(NO)nc2=O)[C@H](O)[C@@H]1O [EIDD-2801, molnupiravir, reference compound]
lung virus titers in plaque assays ([4]; […]): below the limit of detection

N#C[C@@]1(c2ccc3c(N)ncnn23)O[C@H](CO)[C@@H](O)[C@H]1O [GS-441524, reference compound]
nucleocapsid gRNA copies/ μL ([1]; 80mg/kg): 3072139 copies/ μL and 3630875 copies/ μL and 3484205 copies/ μL and 3410466 copies/ μL and 4171196 copies/ μL
Log10 (FFU/g) ([1]; 80mg/kg): 488571 FFU/g and 702857 FFU/g and 351429 FFU/g and 720000 FFU/g and 531429 FFU/g
nucleocapsid gRNA copies/ μL ([1]; 150mg/kg): 3129847 copies/ μL and 270812 copies/ μL and 4369083 copies/ μL and 2646326 copies/ μL and 9650757 copies/ μL
Log10 (FFU/g) ([1]; 150mg/kg): 342857 FFU/g and 368571 FFU/g and 531429 FFU/g and 360000 FFU/g and 420000 FFU/g
Viral titer in lungs ([1]; mouse, in vivo): did not inhibit virus replication
lung histopathology ([1]; mouse, in vivo): multiple sites of injury and inflammatory cell infiltration
